In one experiment the test system is Hep 3B hepatoma cells. The experiment is described as follows: In vitro cell proliferation assay (CellTiter-Glo, CTG), Hep 3B. It is filed as cell-based, human. Conditions: Homo sapiens, Hep3B, 96 h, Hep 3B cells. How it is done: In Vitro Cell Proliferation Assay of FGFR4 (CellTiter-Glo Luminescent Cell Viability Assay, CTG Assay)
Hep 3B hepatoma cells were purchased from Cell Resource Center of Peking Union College, and HuH-7 hepatoma cells were purchased from Shanghai Biological Technology Co., Ltd. enzyme research. The cells were prepared at a concentration of 3×10^4/mL, which was then added with 100 μL to each well of a 96-well transparent flat-bottom black-walled plate to make 3000 cells per well. Incubate overnight at 37° C. in 5% CO2 incubator. Dilute a compound and add it to the wells having the cells, then add cell culture medium to 200 μL per well. Put in CO2 incubator for incubation. After 96 hours, 100 μL of culture medium was removed from each well, 100 μL of CTG was added, and the 96-well plate was placed on a shaker for 10 minutes, and placed in the shade at room temperature for 45 minutes. Data was read out by SoftMax Pro i3X Microplate Reader of MD, analyzed by the software GraphPad Prism 5.0, and S-shaped dose-response curve was drawn, then the EC50 values were calculated.
In general terms: ATP-based viability assays read luminescence as a measure of living cells.

The target in another experiment is FGFR4 (Homo sapiens, UniProt P22455). The experiment can be described thus: In vitro biochemical kinase analysis of FGFR4 (HTRF KinEASE-TK). Conditions: HTRF kinase assay. How it is done: In Vitro Biochemical Kinase Analysis of FGFR4
FGFR4 protein kinase detection kit was purchased from Cisbio (HTRF KinEASE-TK kit). Prepare 1× kinase reaction buffer. Transfer 10 nL of a diluted compound to each well of a reaction plate (784075, Greiner) with an Echo 550, and seal the plate with sealing film. The reaction plate was centrifuged at 1000 g for 1 minute. Prepare 2×FGFR4 using 1× kinase reaction buffer, add 5 μL of kinase to each well of the reaction plate, seal the plate, centrifuge at 1000 g for 30 seconds, and incubate it at room temperature for 10 minutes. Prepare a mixture of 2×TK-substrate-biotin and ATP using 1× kinase reaction buffer, add 5 μL of TK-substrate-biotin/ATP mixture to the reaction plate, seal the plate with sealing film, centrifuge at 1000 g for 30 seconds, and react at room temperature for 40 minutes. Prepare 2×Sa-XL 665 and TK-antibody-Cryptate mixture using HTRF detection buffer, add 10 μL Sa-XL 665 and TK-antibody-Cryptate mixture to each well, centrifuge at 1000 g for 30 seconds, and react at room temperature for 1 hour. Envision 2104 read fluorescence signals at 615 nm (Cryptate) and at 665 nm (XL665). IC50 of the compound was calculated using the GraphPad nonlinear fitting formula.
(TR-FRET usually uses a lanthanide donor and a delayed reading to cut background.)

Broadly, the EC50 is the midpoint of the concentration-response curve. Lower therefore signals an effect from little substance. The IC50 is the point on the concentration scale where inhibition reaches its midpoint.

Sequence of FGFR4 (P22455 22-802): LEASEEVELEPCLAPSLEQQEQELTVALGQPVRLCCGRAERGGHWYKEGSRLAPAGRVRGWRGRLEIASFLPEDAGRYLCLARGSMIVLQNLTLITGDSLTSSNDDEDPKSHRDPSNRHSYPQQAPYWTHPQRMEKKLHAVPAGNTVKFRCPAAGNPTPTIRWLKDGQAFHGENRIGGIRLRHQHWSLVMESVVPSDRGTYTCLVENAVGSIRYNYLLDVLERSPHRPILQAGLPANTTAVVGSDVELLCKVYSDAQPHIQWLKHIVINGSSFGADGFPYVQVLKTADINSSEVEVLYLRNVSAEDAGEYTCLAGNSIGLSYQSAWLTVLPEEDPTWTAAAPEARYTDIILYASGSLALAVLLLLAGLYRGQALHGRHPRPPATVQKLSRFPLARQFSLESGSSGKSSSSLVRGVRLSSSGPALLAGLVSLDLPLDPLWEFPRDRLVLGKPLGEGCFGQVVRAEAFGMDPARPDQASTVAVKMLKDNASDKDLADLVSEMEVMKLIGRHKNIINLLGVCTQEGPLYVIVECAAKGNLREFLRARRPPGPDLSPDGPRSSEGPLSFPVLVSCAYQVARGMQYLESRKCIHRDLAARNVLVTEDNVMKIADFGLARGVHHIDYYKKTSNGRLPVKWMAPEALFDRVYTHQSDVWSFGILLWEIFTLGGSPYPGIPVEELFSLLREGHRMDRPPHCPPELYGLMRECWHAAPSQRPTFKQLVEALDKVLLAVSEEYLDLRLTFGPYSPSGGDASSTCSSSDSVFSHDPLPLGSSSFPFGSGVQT

As for `COCCNc1cc(NC(=O)N2c3nc(C=O)ccc3C3(N4CCN(C)CC4=O)CC2C3)ncc1C#N` [Compound 43, N-(5-cyano-4-((2-methoxyethyl)amino)pyridin-2-yl)-7-formyl-4-(4-methyl-2-oxopiperazin-1-yl)-3,4-dihydro-2,4-methylene-1,8-naphthyridine-1(2H)-carboxamide], in the experiment on Hep 3B hepatoma cells, the response was half-maximal at 6.5 nM (EC50). The compound also displayed an IC50 against FGFR4 of 3.1 nM. Take `COCCNc1cc(NC(=O)N2c3nc(C=O)ccc3C3(N(C)C(=O)c4cnn(C)c4)CC2C3)ncc1C#N` [Compound 42]: the EC50 in the experiment with Hep 3B hepatoma cells came out at 7.2 nM. For the same compound, the IC50 at FGFR4 was determined as 3.2 nM.

`N#Cc1cnc(NC(=O)N2c3nc(C=O)ccc3C3(F)CC2C3)cc1NC1CNC1` [Compound 23, N-(5-cyano-4-(azetidin-3-ylamino)pyridin-2-yl)-7-formyl-4-fluoro-3,4-dihydro-2,4-methylene-1,8-naphthyridine-1(2H)-carboxamide] had an EC50 in the experiment on Hep 3B hepatoma cells of 102 nM. As to `COCCNc1cc(NC(=O)N2c3nc(C=O)ccc3C3(OCC(=O)N4CCOCC4)CC2C3)ncc1C#N` [Compound 45, N-(5-cyano-4-((2-methoxyethyl)amino)pyridin-2-yl)-4-(2-(morpholin-4-yl)-2-oxoethoxy)-7-formyl-3,4-dihydro-2,4-methylene-1,8-naphthyridine-1(2H)-carboxamide], the concentration giving a half-maximal response (EC50) in the experiment with Hep 3B hepatoma cells was 11.4 nM. The compound also yielded an IC50 against FGFR4 of 1.8 nM. For the compound `COCCNc1cc(NC(=O)N2c3nc(C=O)ccc3C3(NC(=O)c4ccccn4)CC2C3)ncc1C#N` [Compound 48, N-(5-cyano-4-((2-methoxyethyl)amino)pyridin-2-yl)-4-(pyridine-2-carboxamido)-7-formyl-3,4-dihydro-2,4-methylene-1,8-naphthyridine-1(2H)-carboxamide], at FGFR4, the IC50 was 1.6 nM. In the experiment with Hep 3B hepatoma cells, `COCCNc1cc(NC(=O)N2c3nc(C=O)ccc3C3(N(C)C4CCOC4)CC2C3)ncc1C#N` (stereo not shown) [Compound 34, N-(5-cyano-4-((2-methoxyethyl)amino)pyridin-2-yl)-4-(methyl(tetrahydrofuran-3-yl)amino)-7-formyl-3,4-dihydro-2,4-methylene-1,8-naphthyridine-1(2H)-carboxamide] displayed an EC50 of 10.7 nM. Also, the IC50 against FGFR4 is 1.2 nM. On to `COCCNc1cc(NC(=O)N2c3nc(C=O)ccc3C3(NC(=O)c4ccc[nH]4)CC2C3)ncc1C#N` [Compound 49], for which the half-inhibitory concentration (IC50) on FGFR4 stood at 1.6 nM. `COCCNc1cc(NC(=O)N2c3nc(C=O)ccc3C3(NC(=O)CO)CC2C3)ncc1C#N` [Compound 47, N-(5-cyano-4-((2-methoxyethyl)amino)pyridin-2-yl)-4-(2-hydroxyacetamido)-7-formyl-3,4-dihydro-2,4-methylene-1,8-naphthyridine-1(2H)-carboxamide] displayed an EC50 in the experiment on Hep 3B hepatoma cells of 17.8 nM. Moreover, at FGFR4, the IC50 is 2.8 nM. In turn, `COCCNc1cc(NC(=O)N2c3nc(C=O)ccc3C3(NC(=O)N4CCOCC4)CC2C3)ncc1C#N` [Compound 44, N-(5-cyano-4-((2-methoxyethyl)amino)pyridin-2-yl)-7-formyl-4-(morpholine-4-carboxamido)-3,4-dihydro-2,4-methylene-1,8-naphthyridine-1(2H)-carboxamide] came in with an EC50 in the experiment on Hep 3B hepatoma cells of 12.3 nM. The concentration for half-maximal inhibition (IC50) at FGFR4 was determined as 2.5 nM. In the same order, the values of `COCCNc1cc(NC(=O)N2c3nc(C=O)ccc3C3(OCCN4CCCC4)CC2C3)ncc1C#N` [Compound 35, N-(5-cyano-4-((2-methoxyethyl)amino)pyridin-2-yl)-4-(2-(pyrrolidin-1-yl)ethoxy)-7-formyl-3,4-dihydro-2,4-methylene-1,8-naphthyridine-1(2H)-carboxamide] are 2.2 nM and 1.1 nM. `CCC(=O)NC12CC(C1)N(C(=O)Nc1cc(NCCOC)c(C#N)cn1)c1nc(C=O)ccc12` [Compound 37, N-(5-cyano-4-((2-methoxyethyl)amino)pyridin-2-yl)-4-propionamido-7-formyl-3,4-dihydro-2,4-methylene-1,8-naphthyridine-1(2H)-carboxamide]: in the experiment on Hep 3B hepatoma cells, it took 6.4 nM to reach a half-maximal effect (EC50). On FGFR4, this compound displayed a 50% inhibitory concentration (IC50) of 2.5 nM.

Values taken from US12344611B2, “Bridged cycloformylpyridine derivatives and uses thereof” (BroadenBio Co., Ltd., priority 2019, dated 2025).
